Where two headings read alike, the source gives them in different places.
Legend:
[1] = target: GST-bound ERR gamma ligand-binding domain (LBD) (Homo sapiens (Human), UniProt P62508); assay: ERRγ binding assay (inverse agonist assay), TR-FRET; conditions: TR-FRET, PGC1a coactivator; read-out: Binding Assay, IC50 ERRγ
Method: 1) ERRγ Binding Assay (Inverse Agonist Assay)
(§2) The arylethene derivative of the present invention was sequentially added to a 384 well plate from a concentration of 10 μM to a final concentration of two-fold dilution. […] After all reagents were added, a reaction was carried out with gentle shaking at 20° C. for 1 hour, and after the reaction, a binding activity was measured by a TR-FRET method.

GST-bound ERR alpha LBD = GST-bound ERR alpha LBD (Homo sapiens (Human), UniProt P11474); conditions: TR-FRET, PGC1a coactivator; read-out: Binding Assay, IC50 ERRα
Method: as §2

[2] = target: GST-bound ER alpha ligand-binding domain (LBD) (Homo sapiens (Human), UniProt P03372); assay: biochemical
Chain of GST-bound ER alpha ligand-binding domain (LBD) (P03372 whole entry, looked up, the tested form may be a part): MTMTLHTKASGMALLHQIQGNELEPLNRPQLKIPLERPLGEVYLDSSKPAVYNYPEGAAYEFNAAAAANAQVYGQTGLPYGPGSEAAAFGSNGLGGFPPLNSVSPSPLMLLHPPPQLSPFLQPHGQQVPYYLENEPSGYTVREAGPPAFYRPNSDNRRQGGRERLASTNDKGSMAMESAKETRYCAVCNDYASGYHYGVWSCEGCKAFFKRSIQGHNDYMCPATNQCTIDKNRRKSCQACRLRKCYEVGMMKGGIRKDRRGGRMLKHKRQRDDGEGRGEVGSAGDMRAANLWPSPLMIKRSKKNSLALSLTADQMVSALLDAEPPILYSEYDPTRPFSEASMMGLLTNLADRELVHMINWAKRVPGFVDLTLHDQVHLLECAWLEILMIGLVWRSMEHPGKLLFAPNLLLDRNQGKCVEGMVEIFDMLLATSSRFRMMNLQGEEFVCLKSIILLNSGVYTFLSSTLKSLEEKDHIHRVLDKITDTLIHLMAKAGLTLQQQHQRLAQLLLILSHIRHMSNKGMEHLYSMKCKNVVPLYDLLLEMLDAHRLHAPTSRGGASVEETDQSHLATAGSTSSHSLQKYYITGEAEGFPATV
Method: as §2

ERRγ = type: cell-based
hERG channel = hERG channel (Homo sapiens (Human), UniProt Q12809); conditions: read-out: hERG IC50; fluorescence polarization assay
CYP1A2 = CYP1A2 (Homo sapiens (Human), UniProt P05177); assay: Cytochrome P450 activity inhibition, CYP1A2; type: in vitro ADME; conditions: 10 μM, human liver microsomes, Phenacetin substrate
Chain of CYP1A2 (P05177 whole entry): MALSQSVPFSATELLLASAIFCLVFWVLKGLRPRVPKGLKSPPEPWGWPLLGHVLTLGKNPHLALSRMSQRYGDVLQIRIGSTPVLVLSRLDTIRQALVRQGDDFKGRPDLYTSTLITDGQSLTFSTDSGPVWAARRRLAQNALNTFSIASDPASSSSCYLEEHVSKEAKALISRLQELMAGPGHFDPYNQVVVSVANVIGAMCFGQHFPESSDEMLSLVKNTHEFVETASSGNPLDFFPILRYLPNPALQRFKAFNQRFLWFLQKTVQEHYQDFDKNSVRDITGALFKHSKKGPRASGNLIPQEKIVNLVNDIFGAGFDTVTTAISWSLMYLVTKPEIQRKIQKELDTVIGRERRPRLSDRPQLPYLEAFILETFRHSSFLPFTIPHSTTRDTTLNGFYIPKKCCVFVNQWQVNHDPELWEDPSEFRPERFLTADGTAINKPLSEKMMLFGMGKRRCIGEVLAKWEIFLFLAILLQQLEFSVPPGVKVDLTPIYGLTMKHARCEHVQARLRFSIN
Text: (§1) 1) Cytochrome P450 (CYP450) Activity Inhibition Evaluation

CYP2C9 = CYP2C9 (Homo sapiens (Human), UniProt P11712); assay: Cytochrome P450 activity inhibition, CYP2C9; type: in vitro ADME; conditions: 10 μM, human liver microsomes, Diclofenac substrate
Chain of CYP2C9 (P11712 whole entry): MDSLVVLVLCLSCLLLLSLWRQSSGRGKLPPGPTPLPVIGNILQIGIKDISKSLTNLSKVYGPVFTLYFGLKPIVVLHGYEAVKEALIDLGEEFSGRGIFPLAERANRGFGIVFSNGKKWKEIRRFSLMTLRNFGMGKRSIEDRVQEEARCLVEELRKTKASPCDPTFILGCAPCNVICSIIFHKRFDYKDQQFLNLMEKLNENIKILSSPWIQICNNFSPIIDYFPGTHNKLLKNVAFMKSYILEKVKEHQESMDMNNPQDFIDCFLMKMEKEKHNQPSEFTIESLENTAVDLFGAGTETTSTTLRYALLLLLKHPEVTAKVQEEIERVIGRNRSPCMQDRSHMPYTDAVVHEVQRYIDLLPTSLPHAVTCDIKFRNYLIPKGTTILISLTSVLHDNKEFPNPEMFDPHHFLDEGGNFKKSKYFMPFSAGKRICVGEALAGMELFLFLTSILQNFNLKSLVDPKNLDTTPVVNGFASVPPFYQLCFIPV
Text: as §1

CYP2C19 = CYP2C19 (Homo sapiens (Human), UniProt P33261); assay: Cytochrome P450 activity inhibition, CYP2C19; type: in vitro ADME; conditions: 10 μM, human liver microsomes, S-mephenytoin substrate
Chain of CYP2C19 (P33261 whole entry): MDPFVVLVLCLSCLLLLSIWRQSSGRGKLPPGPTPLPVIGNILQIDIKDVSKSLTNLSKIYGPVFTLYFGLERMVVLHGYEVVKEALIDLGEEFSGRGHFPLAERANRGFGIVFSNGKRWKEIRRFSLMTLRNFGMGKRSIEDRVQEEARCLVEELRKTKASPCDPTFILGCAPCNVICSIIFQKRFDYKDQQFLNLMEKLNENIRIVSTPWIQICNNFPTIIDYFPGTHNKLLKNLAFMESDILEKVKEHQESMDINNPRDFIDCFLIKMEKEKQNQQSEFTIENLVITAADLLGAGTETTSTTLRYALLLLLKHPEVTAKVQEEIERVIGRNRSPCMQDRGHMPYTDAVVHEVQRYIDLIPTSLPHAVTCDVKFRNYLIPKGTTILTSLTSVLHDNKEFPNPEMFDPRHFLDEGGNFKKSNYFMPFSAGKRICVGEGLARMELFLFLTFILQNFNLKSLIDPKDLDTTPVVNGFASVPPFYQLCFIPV
Text: as §1

CYP2D6 = CYP2D6 (Homo sapiens (Human), UniProt P10635); assay: Cytochrome P450 activity inhibition, CYP2D6; type: in vitro ADME; conditions: 10 μM, human liver microsomes, Dextromethorphan substrate
Chain of CYP2D6 (P10635 whole entry): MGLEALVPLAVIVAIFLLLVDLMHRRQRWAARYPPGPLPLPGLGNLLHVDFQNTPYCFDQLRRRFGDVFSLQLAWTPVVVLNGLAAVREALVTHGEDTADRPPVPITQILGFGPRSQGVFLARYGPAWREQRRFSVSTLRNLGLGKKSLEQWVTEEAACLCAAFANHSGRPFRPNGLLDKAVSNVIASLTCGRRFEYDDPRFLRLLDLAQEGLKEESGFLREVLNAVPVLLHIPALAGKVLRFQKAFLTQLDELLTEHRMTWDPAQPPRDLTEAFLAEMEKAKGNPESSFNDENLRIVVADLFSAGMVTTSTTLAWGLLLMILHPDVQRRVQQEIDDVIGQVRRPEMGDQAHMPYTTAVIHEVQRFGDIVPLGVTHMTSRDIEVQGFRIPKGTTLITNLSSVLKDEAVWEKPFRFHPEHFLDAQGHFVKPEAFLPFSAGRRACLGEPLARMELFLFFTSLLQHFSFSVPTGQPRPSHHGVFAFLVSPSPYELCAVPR
Text: as §1

CYP3A4 = CYP3A4 (Homo sapiens (Human), UniProt P08684); assay: Cytochrome P450 activity inhibition, CYP3A4; type: in vitro ADME; conditions: 10 μM, human liver microsomes, Midazolam substrate
Chain of CYP3A4 (P08684 whole entry): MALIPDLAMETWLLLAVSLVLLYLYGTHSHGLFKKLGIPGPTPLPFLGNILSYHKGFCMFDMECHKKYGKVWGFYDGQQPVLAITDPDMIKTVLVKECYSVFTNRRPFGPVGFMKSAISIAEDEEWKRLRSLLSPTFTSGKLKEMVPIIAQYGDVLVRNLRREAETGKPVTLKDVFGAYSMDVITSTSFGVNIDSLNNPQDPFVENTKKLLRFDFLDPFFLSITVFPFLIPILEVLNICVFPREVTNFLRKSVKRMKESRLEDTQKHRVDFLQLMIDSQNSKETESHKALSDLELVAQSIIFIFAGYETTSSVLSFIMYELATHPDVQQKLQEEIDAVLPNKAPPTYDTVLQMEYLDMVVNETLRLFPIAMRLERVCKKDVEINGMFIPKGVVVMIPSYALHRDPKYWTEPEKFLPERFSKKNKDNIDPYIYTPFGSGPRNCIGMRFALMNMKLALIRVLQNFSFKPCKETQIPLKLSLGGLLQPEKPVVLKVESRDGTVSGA
Text: as §1

in vitro = in vitro ADME; conditions: PBS pH 7.4, 25° C., 5 hours
in vivo = type: in vivo; conditions: rat; for Cmax: read-out: Cmax
[3] = 1 μM, 30 minutes, 37° C., NADPH
[4] = 1 μM, 30 minutes, 37° C., NADPH; remark: listed apart in the source
Method: 2) Microsomal Stability Evaluation
Four liver microsomes (Human, Dog, Rat, Mouse 0.5 mg/ml) with a 0.1 M phosphate buffer solution (pH 7.4), and the arylethene derivative of the present invention were added to a concentration of 1 μM, culturing was performed at 37° C. for 5 minutes in advance, a NADPH regeneration system solution was added thereto, and culturing was performed at 37° C. for 30 minutes. Thereafter, in order to complete the reaction, an acetonitrile solution containing an internal standard material (chlorpropamide) was added thereto, centrifugation (14,000 rpm, 4° C.) was performed for 5 minutes, and a supernatant was injected into a LC-MS/MS system to analyze the substrate drug, thereby evaluating metabolism stability to the arylethene derivative of the present invention.

[5] = 1 μM, 30 minutes, 37° C., NADPH; remark: listed apart in the source
ERRβ = ERRβ (Homo sapiens, UniProt O95718); conditions: TR-FRET, PGC1a coactivator; read-out: Binding Assay, IC50 ERRβ
Chain of ERRβ (O95718 whole entry, looked up): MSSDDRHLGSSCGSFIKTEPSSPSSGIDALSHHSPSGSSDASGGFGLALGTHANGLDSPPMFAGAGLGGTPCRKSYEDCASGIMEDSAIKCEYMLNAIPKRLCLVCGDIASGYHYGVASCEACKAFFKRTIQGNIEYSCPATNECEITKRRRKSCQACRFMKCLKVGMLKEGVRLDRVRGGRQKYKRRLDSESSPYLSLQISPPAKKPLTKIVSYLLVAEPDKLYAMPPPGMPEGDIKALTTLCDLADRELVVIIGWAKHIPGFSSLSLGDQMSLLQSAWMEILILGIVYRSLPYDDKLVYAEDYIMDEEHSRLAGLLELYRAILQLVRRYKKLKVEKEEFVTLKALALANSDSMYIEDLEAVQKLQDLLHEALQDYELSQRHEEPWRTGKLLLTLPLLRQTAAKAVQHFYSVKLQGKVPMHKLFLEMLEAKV
Method: as §2

[6] = 1 μM, 30 minutes, 37° C., NADPH; remark: listed apart in the source
[7] = TR-FRET, beta-estradiol 4 nM as agonist, read-out: Binding Assay, IC50 ERα
[8] = activity relative to reference compound GSK5182, 10 μM

Chain of GST-bound ERR gamma ligand-binding domain (LBD) (P62508 233-457): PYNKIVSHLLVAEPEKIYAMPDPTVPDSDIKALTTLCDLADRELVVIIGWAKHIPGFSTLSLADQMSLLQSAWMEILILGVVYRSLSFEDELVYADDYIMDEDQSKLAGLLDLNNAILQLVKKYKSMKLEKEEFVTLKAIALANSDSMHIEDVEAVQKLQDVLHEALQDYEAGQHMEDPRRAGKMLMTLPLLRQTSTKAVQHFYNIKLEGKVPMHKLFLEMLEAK
Chain of GST-bound ERR alpha LBD (P11474 193-421): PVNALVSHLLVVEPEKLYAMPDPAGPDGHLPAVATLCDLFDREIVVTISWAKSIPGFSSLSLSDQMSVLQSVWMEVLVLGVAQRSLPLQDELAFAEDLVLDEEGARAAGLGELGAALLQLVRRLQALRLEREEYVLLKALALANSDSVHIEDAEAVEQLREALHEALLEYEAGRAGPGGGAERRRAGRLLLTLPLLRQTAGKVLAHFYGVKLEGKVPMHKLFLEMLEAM

SMILES	IC50 (GST-bound ERR alpha LBD)	IC50 [2, 7]	Functional Assay at 10 μM (% of control), Cpds (ERRγ; 10 μM, 24 hours, AD293)	Functional Assay, Cpds/Ref 5182 (ERRγ; [8])	IC50 (hERG channel)	CYP inhibition (% of control) 1A2 (CYP1A2)	CYP inhibition (% of control) 2C9 (CYP2C9)	CYP inhibition (% of control) 2C19 (CYP2C19)	CYP inhibition (% of control) 2D6 (CYP2D6)	CYP inhibition (% of control) 3A4 (CYP3A4)	Permeability Pampa (in vitro)	MS(Microsomal Stability) (%) human [3]	MS(Microsomal Stability) (%) rat [4]	MS(Microsomal Stability) (%) mouse [5]	IC50 (ERRβ)	MS(Microsomal Stability) (%) dog [6]	also measured
CN1CCCC1CCOc1ccc(/C(=C(/CCCO)c2ccccc2)c2ccc(O)cc2)cc1 (centres unmarked) [Compound 6g]	> 10 µM	0.331 µM	4.94 % of control	1.60	5.4 µM												IC50 [1]: 0.03 µM
CN1CCC[C@H]1COc1ccc(/C(=C(/CCCO)c2ccccc2)c2ccc(O)cc2)cc1 [Compound 6h]					18 µM												IC50 [2]: 1.1 µM; Functional Assay at 10 μM (% of control), Cpds (ERRγ): 5.49 % of control; Functional Assay, Cpds/Ref 5182 (ERRγ): 1.78
Cc1ccc(/C(=C(\CCCO)c2ccccc2)c2ccc(N3CCN(C(C)C)CC3)cc2)cc1 [Compound 18b]	> 10 µM	> 10 µM	2.45 % of control	0.78	> 30 µM	89.8 % of control	73.4 % of control	69.7 % of control	68.9 % of control	53 % of control	2.09 10^−6 cm/s	54.2%	40.0%	19.7%			AUCINF (in vivo; IV, 1 mg/kg): 0.64 μMh; AUCall (in vivo; IV, 1 mg/kg): 0.58 μMh; Vss (in vivo; IV, 1 mg/kg): 9.8 L/kg; t1/2 (in vivo; IV, 1 mg/kg): 3.1 h; AUCINF (in vivo; PO, 10 mg/kg): 0.36 μMh; AUCall (in vivo; PO, 10 mg/kg): 0.31 μMh; BA (in vivo; PO, 10 mg/kg): 8.7%; Tmax (in vivo; PO, 10 mg/kg): 0.6 h; Cmax (in vivo; PO, 10 mg/kg): 120 nM
CN1CCN(c2ccc(/C(=C(/CCCO)c3ccccc3)c3ccc(O)cc3)cc2)CC1 [Compound 18d]	> 10 µM	1.7 µM	9.65 % of control	0.97	> 20 µM	88 % of control	67.7 % of control	81.2 % of control	98.4 % of control	64 % of control	0.14 10^−6 cm/s						
Cc1ccc(/C(=C(\CCCO)c2ccccc2)c2ccc(N3CCN(C)CC3)cc2)cc1 [Compound 18f]	> 10 µM	> 10 µM	2.57 % of control	0.82	18.9 µM	>100 % of control	62.3 % of control	72.8 % of control	68.2 % of control	70.9 % of control	4.84 10^−6 cm/s	79.2%	65.7%	47.6%			AUCINF (in vivo; IV, 1 mg/kg): 0.29 μMh; AUCall (in vivo; IV, 1 mg/kg): 0.28 μMh; Vss (in vivo; IV, 1 mg/kg): 30.3 L/kg; t1/2 (in vivo; IV, 1 mg/kg): 2.5 h; AUCINF (in vivo; PO, 10 mg/kg): 7.00 μMh; AUCall (in vivo; PO, 10 mg/kg): 2.93 μMh; BA (in vivo; PO, 10 mg/kg): 41.2%; Tmax (in vivo; PO, 10 mg/kg): 2.4 h; Cmax (in vivo; PO, 10 mg/kg): 450 nM
CCN1CCN(c2ccc(/C(=C(/CCCO)c3ccccc3)c3ccc(O)cc3)cc2)CC1 [Compound 18i]	> 10 µM	1.14 µM	1.88 % of control	0.97	> 30 µM						1.16 10^−6 cm/s						IC50 [1]: 0.05 µM
CC(C)(C)OC(=O)N1CCN(c2ccc(/C(=C(/CCCO)c3ccccc3)c3ccc(Br)cc3)cc2)CC1 [Compound 18n]	8.25 µM	8.8 µM	3.36 % of control	0.82							0.63 10^−6 cm/s				1.09 µM		
Cc1ccc(/C(=C(\CCCO)c2ccccc2)c2ccc(N3CCNCC3)cc2)cc1 [Compound 20b]	> 10 µM	> 10 µM	3.58 % of control	0.88							3.61 10^−6 cm/s	44%	71.5%	28.8%	2.1 µM	58%	
OCCC/C(=C(\c1ccc(O)cc1)c1ccc(N2CCNCC2)cc1)c1ccccc1 [Compound 20j]	> 10 µM	0.992 µM	1.41 % of control	1.38		93.6 % of control	77.1 % of control	62 % of control	89.3 % of control	66.2 % of control		76.8%	84.5%	25.3%	4.93 µM	68.3%	
CC(C)N1CCC(c2ccc(/C(=C(/CCCO)c3ccccc3)c3ccc(O)cc3)cc2)CC1 [Compound 22g]	> 10 µM	4.37 µM			22 µM							42.8%	43.2%	10.7%		54.3%	
CC(C)N1CCC(c2ccc(/C(=C(/CCCO)c3ccccc3)c3cccc(O)c3)cc2)CC1 [Compound 22m]	> 10 µM	> 10 µM				97 % of control	80.3 % of control	>100 % of control	70.7 % of control	58.1 % of control		55.3%	53.5%	24.2%	7.82 µM	55.0%	AUCINF (in vivo; IV, 1 mg/kg): 0.00 μMh; AUCall (in vivo; IV, 1 mg/kg): 0.34 μMh; Vss (in vivo; IV, 1 mg/kg): 19.9 L/kg; t1/2 (in vivo; IV, 1 mg/kg): 2.4 h; AUCINF (in vivo; PO, 10 mg/kg): 0.00 μMh; AUCall (in vivo; PO, 10 mg/kg): 0.73 μMh; BA (in vivo; PO, 10 mg/kg): 24.3%; Tmax (in vivo; PO, 10 mg/kg): 2.4 h; t1/2 (in vivo; PO, 10 mg/kg): 4.3 h; Cmax (in vivo; PO, 10 mg/kg): 130 nM
OCCC/C(=C(/c1ccc(C2CCN(C3CC3)CC2)cc1)c1cccc(O)c1)c1ccccc1 [Compound 22r]					16.4 µM	>100 % of control	>100 % of control	>100 % of control	91.8 % of control	82.7 % of control		62.0%	49.9%	24.5%		56.9%	AUCINF (in vivo; IV, 1 mg/kg): 0.87 μMh; AUCall (in vivo; IV, 1 mg/kg): 0.85 μMh; Vss (in vivo; IV, 1 mg/kg): 4.6 L/kg; t1/2 (in vivo; IV, 1 mg/kg): 1.8 h; AUCINF (in vivo; PO, 10 mg/kg): 5.29 μMh; AUCall (in vivo; PO, 10 mg/kg): 4.93 μMh; BA (in vivo; PO, 10 mg/kg): 58.2%; Tmax (in vivo; PO, 10 mg/kg): 1 h; t1/2 (in vivo; PO, 10 mg/kg): 2.3 h; Cmax (in vivo; PO, 10 mg/kg): 1510 nM
OCCC/C(=C(\c1ccc(O)cc1)c1ccc(C2CCN(C3CC3)C2)cc1)c1ccccc1 (centres unmarked) [Compound 22t]	> 10 µM	5.94 µM	6.19 % of control												3.56 µM		
OCCC/C(=C(\c1ccc(O)cc1)c1ccc(OCCN2C[C@H]3C[C@H]3[C@H]2CO)cc1)c1ccccc1 [Compound 38d]		0.276 µM	3.16 % of control	0.77		79.2 % of control	55.3 % of control	58.8 % of control	54.3 % of control	57.6 % of control		6.9%	11.7%	11.8%	8.8 µM		IC50 [1]: 0.083 µM

Source: US10934303B2, “Aryl ethene derivative and pharmaceutical composition containing same as active ingredient” (priority 2016, dated 2021)
